Data from ChEMBL document CHEMBL4725353, “Discovery of Pyrido[2,3-b]indole Derivatives with Gram-Negative Activity Targeting Both DNA Gyrase and Topoisomerase IV” (J Med Chem, 2020).
≈ marks a conversion by molar mass, not a printed value.

Legend:
Escherichia coli [1] = assay: microbe, parasite or virus in culture; settings: ATCC 25922
Description: Antibacterial activity against Escherichia coli ATCC 25922 assessed as reduction in microbial growth preincubated for 20 to 24 hrs followed by subculture in absence of compound and measured on day 4 CLSI based broth microdilution susceptibility method

[2] = Distribution coefficient between octanol and buffer, log D of the compound in pH 7.4 buffer by CAMDIS assay; assay type: physicochemical
Escherichia coli [3] = assay: microbe, parasite or virus in culture; settings: ATCC 29213
Description: Antibacterial activity against Escherichia coli ATCC 29213 assessed as reduction in microbial growth preincubated for 20 to 24 hrs followed by subculture in absence of compound and measured on day 4 CLSI based broth microdilution susceptibility method

physchem = settings: PBS, pH 6.5
Description: Solubility of compound in PBS at pH 6.5 incubated for over night by HPLC-UV based lyophilization solubility assay

in vitro = settings: mouse, liver microsomes
Description: Intrinsic clearance in mouse liver microsomes preincubated for 10 mins followed by NADPH regenerating system addition and measured up to 30 mins by LC/MS-MS analysis

MIC (Escherichia coli [1]) [mg/L]	logD [2]	MIC (Escherichia coli [3]) [mg/L]	solubility (physchem) [µg/mL]	CLint scaled at 0.5 h (in vitro) [L/h/kg]	Compound
4 (≈ 9.12 µM)					CCNc1cc(F)cc2c1[nH]c1ncc(-c3cncc(C#N)c3)c(-n3cc4c(n3)CNC4)c12
8 (≈ 16.7 µM)					CCNc1cc(F)cc2c1[nH]c1ncc(-c3cncc(C#N)c3)c(-n3nc(C(F)(F)F)cc3C)c12
0.5 (≈ 0.974 µM)	3.41	< 0.125			CCNc1cc(F)cc2c1[nH]c1ncc(-c3cncc(C(=O)NOC)c3)c(-n3ccc(C(F)(F)F)n3)c12
1 (≈ 1.77 µM)	2.54	< 0.125			CCNc1cc(F)cc2c1[nH]c1ncc(-c3cnc4c(c3)c(=O)c(C(=O)O)cn4C)c(-n3ccc(C(F)(F)F)n3)c12
> 16		< 0.25	< 0.7		CCNc1cc(F)cc2c1[nH]c1ncc(-c3cncc(C#N)c3)c(-n3ccc(C(C)C)n3)c12
2 (≈ 3.72 µM)					CCNc1cc(F)cc2c1[nH]c1ncc(-c3cncc(C#N)c3)c(-n3cc(C(=O)OCC)c(C(F)(F)F)n3)c12
4 (≈ 8.07 µM)					CCNc1cc(F)cc2c1[nH]c1ncc(-c3cncc(C#N)c3)c(-n3cc(CO)c(C(F)(F)F)n3)c12
> 16					CCNc1cc(F)cc2c1[nH]c1ncc(-c3cncc(C#N)c3)c(-n3nc(C(F)(F)F)cc3CO)c12
8 (≈ 15.3 µM)	2.8	0.5 (≈ 0.953 µM)			CCNc1cc(F)cc2c1[nH]c1ncc(-c3cncc(N4CCNCC4)c3)c(-n3ccc(C(F)(F)F)n3)c12
1 (≈ 2.24 µM)		< 0.25	< 1		CCNc1cc(F)cc2c1[nH]c1ncc(-c3cncc(C#N)c3)c(-n3ccc(C(F)F)n3)c12
0.5 (≈ 1.03 µM)		< 0.25	< 0.2	3.17	CCNc1cc(F)cc2c1[nH]c1ncc(-c3cnc([C@H](C)O)nc3)c(-n3ccc(C(F)(F)F)n3)c12
> 16		> 16			CCNc1cc(F)cc2c1[nH]c1ncc(-c3cncc(C#N)c3)c(-n3ccc(C(=O)O)n3)c12
2 (≈ 4.42 µM)				1.21	CCNc1cc(F)cc2c1[nH]c1ncc(-c3cncc(C#N)c3)c(-n3ncc4c3CNCC4)c12
> 16		< 0.25	< 0.3		CCNc1cc(F)cc2c1[nH]c1ncc(-c3cncc(C#N)c3)c(-n3ccc(C(C)(C)C)n3)c12
0.375 (≈ 0.714 µM)		< 0.016	67 (≈ 128 µM)	2.63	CCNc1cc(F)cc2c1[nH]c1ncc(-c3cnc(C4(C(=O)O)CC4)nc3)c(-n3ccc(C(F)(F)F)n3)c12
> 16					CCNc1cc(F)cc2c1[nH]c1ncc(-c3cncc(C#N)c3)c(-n3cc(C(=O)O)c(C(F)(F)F)n3)c12
16 (≈ 33 µM)		4 (≈ 8.24 µM)			CCNc1cc(F)cc2c1[nH]c1ncc(-c3cnc(C(=O)O)nc3)c(-n3ccc(C(F)(F)F)n3)c12
1 (≈ 2.15 µM)		< 0.016	< 1		CCNc1cc(F)cc2c1[nH]c1ncc(-c3cncc(C#N)c3)c(-n3cc(C(F)(F)F)cn3)c12
2.83 (≈ 5.44 µM)	3.62	< 0.057			CCNc1cc(F)cc2c1[nH]c1ncc(-c3cncc(Cc4ncc[nH]4)c3)c(-n3ccc(C(F)(F)F)n3)c12
0.73 (≈ 1.36 µM)	3.38	< 0.056			CCNc1cc(F)cc2c1[nH]c1ncc(-c3cncc(Cc4n[nH]c(=O)o4)c3)c(-n3ccc(C(F)(F)F)n3)c12
> 16					CCNc1cc(F)cc2c1[nH]c1ncc(-c3cncc(C#N)c3)c(-n3cc(C(N)=O)c(C(F)(F)F)n3)c12
0.5 (≈ 1.1 µM)		< 0.016			CCNc1cc(F)cc2c1[nH]c1ncc(-c3cnc(C)nc3)c(-n3ccc(C(F)(F)F)n3)c12
4 (≈ 8.84 µM)			200 (≈ 442 µM)	3.13	CCNc1cc(F)cc2c1[nH]c1ncc(-c3cncc(C#N)c3)c(-n3ncc4c3CCNC4)c12
2 (≈ 4.12 µM)		< 0.016	< 0.3	2.22	CCNc1cc(F)cc2c1[nH]c1ncc(-c3cnc(OCC)nc3)c(-n3ccc(C(F)(F)F)n3)c12

MIC (Escherichia coli [1]) [mg/L]	logD [2]	MIC (Escherichia coli [3]) [mg/L]	solubility (physchem) [µg/mL]	CLint scaled at 0.5 h (in vitro) [L/h/kg]	Compound
1 (≈ 2.35 µM)		< 0.25	< 0.3		CCNc1cc(F)cc2c1[nH]c1ncc(-c3cncc(C#N)c3)c(-n3ccc(CC)n3)c12
8 (≈ 16.1 µM)	2.28	0.5 (≈ 1.01 µM)			CCNc1cc(F)cc2c1[nH]c1ncc(-c3cncc(C(=N)NC)c3)c(-n3ccc(C(F)(F)F)n3)c12
0.125 (≈ 0.296 µM)		< 0.016	< 1		CCNc1cc(F)cc2c1[nH]c1ncc(-c3cncc(C#N)c3)c(-n3ccc(C#N)n3)c12
4 (≈ 7.21 µM)		< 0.016	133 (≈ 240 µM)		CCNc1cc(F)cc2c1[nH]c1ncc(-c3cnc(NCC4(C(=O)O)CC4)nc3)c(-n3ccc(C(F)(F)F)n3)c12
2 (≈ 4.09 µM)			< 1		CCNc1cc(F)cc2c1[nH]c1ncc(-c3cncc(C#N)c3)c(-n3nc(C(F)F)c4c3CNC4)c12
0.5 (≈ 1.06 µM)		< 0.016	< 1	1.21	CCNc1cc(F)cc2c1[nH]c1ncc(-c3cnc(OC)nc3)c(-n3ccc(C(F)(F)F)n3)c12
< 0.25		< 0.25	< 0.2	3.33	CCNc1cc(F)cc2c1[nH]c1ncc(-c3cnc(C(N)=O)nc3)c(-n3ccc(C(F)(F)F)n3)c12
< 0.25		< 0.25			CCNc1cc(F)cc2c1[nH]c1ncc(-c3cnc(C(=O)NC)nc3)c(-n3ccc(C(F)(F)F)n3)c12
0.5 (≈ 1.04 µM)		< 0.016	< 1		CCNc1cc(F)cc2c1[nH]c1ncc(-c3cncc(C#N)c3)c(-c3nc(C(F)(F)F)cs3)c12
1 (≈ 2.01 µM)	3.1	< 0.125			CCNc1cc(F)cc2c1[nH]c1ncc(-c3cncc(CC(N)=O)c3)c(-n3ccc(C(F)(F)F)n3)c12
0.25 (≈ 0.531 µM)		< 0.016	< 1	3.19	CCNc1cc(F)cc2c1[nH]c1ncc(-c3cnc(NC)nc3)c(-n3ccc(C(F)(F)F)n3)c12
2 (≈ 4 µM)	3.05	< 0.125			CCNc1cc(F)cc2c1[nH]c1ncc(-c3cncc(C(=O)NO)c3)c(-n3ccc(C(F)(F)F)n3)c12
> 16		0.25 (≈ 0.537 µM)			CCNc1cc(F)cc2c1[nH]c1ncc(-c3cncc(C#N)c3)c(-n3cnc(C(F)(F)F)c3)c12
1 (≈ 2 µM)		< 0.016	9 (≈ 18 µM)	2.64	CCNc1cc(F)cc2c1[nH]c1ncc(-c3cnc(CC(=O)O)nc3)c(-n3ccc(C(F)(F)F)n3)c12
1 (≈ 2 µM)		< 0.25	< 1	3.52	CCNc1cc(F)cc2c1[nH]c1ncc(-c3cnc(C(C)(C)O)nc3)c(-n3ccc(C(F)(F)F)n3)c12
0.5 (≈ 1.01 µM)	3.42	< 0.25			CCNc1cc(F)cc2c1[nH]c1ncc(-c3cncc(C(=O)NC)c3)c(-n3ccc(C(F)(F)F)n3)c12
2 (≈ 3.59 µM)		< 0.016	< 1	2.61	CCNc1cc(F)cc2c1[nH]c1ncc(-c3cnc(OCC(C)(C)C(=O)O)nc3)c(-n3ccc(C(F)(F)F)n3)c12
> 16		0.063 (≈ 0.133 µM)			CCNc1cc(F)cc2c1[nH]c1ncc(-c3cncc(C#N)c3)c(-c3cccc(C(F)(F)F)c3)c12
16 (≈ 37.5 µM)		2 (≈ 4.69 µM)			CCNc1cc(F)cc2c1[nH]c1ncc(-c3cncc(C#N)c3)c(-n3ccc(CN)n3)c12
0.5 (≈ 1.03 µM)		< 0.25	< 1	3.43	CCNc1cc(F)cc2c1[nH]c1ncc(-c3cnc([C@@H](C)O)nc3)c(-n3ccc(C(F)(F)F)n3)c12
0.75 (≈ 1.47 µM)		< 0.016	148 (≈ 289 µM)	1.37	CNc1cc(F)cc2c1[nH]c1ncc(-c3cnc(C4(C(=O)O)CC4)nc3)c(-n3ccc(C(F)(F)F)n3)c12
2 (≈ 4.86 µM)		< 0.25	< 1		CCNc1cc(F)cc2c1[nH]c1ncc(-c3cncc(C#N)c3)c(-n3ccc(C)n3)c12
1 (≈ 1.9 µM)		< 0.016	< 1	1.45	CCNc1cc(F)cc2c1[nH]c1ncc(-c3cnc(N4CCOCC4)nc3)c(-n3ccc(C(F)(F)F)n3)c12
0.71 (≈ 1.36 µM)	3.66	< 0.056			CCNc1cc(F)cc2c1[nH]c1ncc(-c3cncc(Cc4ncco4)c3)c(-n3ccc(C(F)(F)F)n3)c12
